# Experiments:
# Experiment in all cases: Histone peptide microarray
# Assay type in all cases: binding, human
# [1] = test system: ING4; conditions: GST-tagged ING4
# Excerpt: (§1) To more comprehensively define the histone interactions of the 31 PHD readers identified from the domain microarray analyses, we probed each on an alternate microarray platform containing a library of 293 synthetic histone peptides with single or combinatorial PTMs (Additional file 2: Figure S4 and Additional file 3: Table S2).
# (§2) The 31 GST-tagged PHD readers identified in the PHD finger domain array were expressed and purified as previously. Histone peptide arrays and peptide pulldown assays were conducted as recently described (specifically, the optimized protocol from Petell et al. for the former).
# (§3) Supplementary file 13072_2020_328_MOESM3_ESM.xlsx: Additional file 3: Table S2. […] Excel Tab Peptide List is a compiled list of the entire 293 histone peptide library with amino acid sequence ranges. […] Each number corresponds to the peptide number designated in Peptide List. Excel Tab Average Signals is a compiled set of binding data: chromatin reader at 0.5 μM vs. entire 293 peptide library. Data is presented as the average and standard deviation of 4 replicates. The average signals are colored to indicate signal intensity with green being strong and white being weak/low. […] Key: red= stronger relative binding; blue = weaker relative binding. Excel Tab Array info summary is a table summarizing the domains, sequence coverage, array signal range, and noise for each of the GST-tagged readers assayed on the peptide microarrays.
# [2] = test system: TAF3; conditions: GST-tagged TAF3
# Excerpt: as §1, §2, §3
# [3] = test system: ING2; conditions: GST-tagged ING2
# Excerpt: as §1, §2, §3
# [4] = test system: CHD5 (PPCC)
# Excerpt: as §1, §2, §3
# [5] = test system: TRIM66 (PB)
# Excerpt: as §1, §2, §3
# [6] = test system: RAG2; conditions: GST-tagged RAG2
# Excerpt: as §1, §2, §3
# [7] = test system: PHRF1 (RP); conditions: GST-tagged PHRF1 (RP)
# Excerpt: as §1, §2, §3
# [8] = test system: ING3; conditions: GST-tagged ING3
# Excerpt: as §1, §2, §3
# [9] = test system: SP140L; conditions: GST-tagged SP140L
# Excerpt: as §1, §2, §3
# [10] = test system: CHD5 (PCC)
# Excerpt: as §1, §2, §3
# [11] = test system: ING5; conditions: GST-tagged ING5
# Excerpt: as §1, §2, §3
# [12] = test system: DPF2 (PPC2W2)
# Excerpt: as §1, §2, §3
# [13] = test system: KDM7A; conditions: GST-tagged KDM7A
# Excerpt: as §1, §2, §3
# [14] = test system: MLL5; conditions: GST-tagged MLL5
# Excerpt: as §1, §2, §3
# [15] = test system: PHF23; conditions: GST-tagged PHF23
# Excerpt: as §1, §2, §3
# [16] = test system: KDM5A (3); conditions: GST-tagged KDM5A (3)
# Excerpt: as §1, §2, §3
# [17] = test system: PHF13; conditions: GST-tagged PHF13
# Excerpt: as §1, §2, §3
# [18] = test system: BPTF (PB)
# Excerpt: as §1, §2, §3
# [19] = test system: DIDO1; conditions: GST-tagged DIDO1
# Excerpt: as §1, §2, §3
# [20] = test system: KDM4C (TTP)
# Excerpt: as §1, §2, §3
# [21] = test system: BAZ2B; conditions: GST-tagged BAZ2B
# Excerpt: as §1, §2, §3
# [22] = test system: KDM5A (1); conditions: GST-tagged KDM5A (1)
# Excerpt: as §1, §2, §3
# [23] = test system: PHF2; conditions: GST-tagged PHF2
# Excerpt: as §1, §2, §3
# [24] = test system: KDM5B (3); conditions: GST-tagged KDM5B (3)
# Excerpt: as §1, §2, §3
# [25] = test system: CHD4 (PPCC)
# Excerpt: as §1, §2, §3
# [26] = test system: PHF8; conditions: GST-tagged PHF8
# Excerpt: as §1, §2, §3
# [27] = test system: MORC3 (CW)
# Excerpt: as §1, §2, §3
# [28] = test system: PHF21A; conditions: GST-tagged PHF21A
# Excerpt: as §1, §2, §3
# [29] = test system: ING1; conditions: GST-tagged ING1
# Excerpt: as §1, §2, §3
# [30] = test system: AIRE (PP); conditions: GST-tagged AIRE (PP)
# Excerpt: as §1, §2, §3
# [31] = test system: KDM5B (1); conditions: GST-tagged KDM5B (1)
# Excerpt: as §1, §2, §3
# [32] = sheet "Array Heatmap", arrays performed twice, total replicate number n = 4
# [33] = sheet Array Heatmap, each array performed twice, total n = 4
substance,measurement,setting,value
H3 (1-32): H3 1-32,"Array Heatmap signal, ING4",[1]; [32],0.4381
same,"Array Heatmap signal, TAF3",[2]; [32],0.2681
same,"Array Heatmap signal, ING2",[3]; [32],0.5998
same,"Array Heatmap signal, CHD5 (PPCC)","[4]; sheet ""Array Heatmap"", GST-tagged CHD5 (PPCC), arrays performed twice, total replicate number n = 4",0.5395
same,"Array Heatmap signal, TRIM66 (PB)","[5]; sheet ""Array Heatmap"", GST-tagged TRIM66 (PB), arrays performed twice, total replicate number n = 4",0.7057
same,"Array Heatmap signal, RAG2",[6]; [32],0.2569
same,"Array Heatmap signal, PHRF1 (RP)",[7]; [32],0.6359
same,"Array Heatmap signal, ING3",[8]; [32],0.4534
same,"Array Heatmap signal, SP140L",[9]; [32],0.3492
same,"Array Heatmap signal, CHD5 (PCC)","[10]; sheet ""Array Heatmap"", GST-tagged CHD5 (PCC), arrays performed twice, total replicate number n = 4",0.752
same,"Array Heatmap signal, ING5",[11]; [32],0.344
same,"Array Heatmap signal, DPF2 (PPC2W2)","[12]; sheet ""Array Heatmap"", GST-tagged DPF2 (PPC2W2), arrays performed twice, total replicate number n = 4",0.6414
same,"Array Heatmap signal, KDM7A",[13]; [32],0.308
same,"Array Heatmap signal, MLL5",[14]; [32],0.5257
same,"Array Heatmap signal, PHF23",[15]; [32],0.5255
same,"Array Heatmap signal, KDM5A (3)",[16]; [32],0.5232
same,"Array Heatmap signal, PHF13",[17]; [32],0.5781
same,"Array Heatmap signal, BPTF (PB)","[18]; sheet ""Array Heatmap"", GST-tagged BPTF (PB), arrays performed twice, total replicate number n = 4",0.3386
same,"Array Heatmap signal, DIDO1",[19]; [32],0.6427
same,"Array Heatmap signal, KDM4C (TTP)","[20]; sheet ""Array Heatmap"", GST-tagged KDM4C (TTP), arrays performed twice, total replicate number n = 4",0.4465
same,"Array Heatmap signal, BAZ2B",[21]; [32],0.4644
same,"Array Heatmap signal, KDM5A (1)",[22]; [32],0.4672
same,"Array Heatmap signal, PHF2",[23]; [32],0.514
same,"Array Heatmap signal, KDM5B (3)",[24]; [32],0.4939
same,"Array Heatmap signal, CHD4 (PPCC)","[25]; sheet ""Array Heatmap"", GST-tagged CHD4 (PPCC), arrays performed twice, total replicate number n = 4",0.5584
same,"Array Heatmap signal, PHF8",[26]; [32],0.3413
same,"Array Heatmap signal, MORC3 (CW)","[27]; sheet ""Array Heatmap"", GST-tagged MORC3 (CW), arrays performed twice, total replicate number n = 4",0.4518
same,"Array Heatmap signal, PHF21A",[28]; [32],0.4399
same,"Array Heatmap signal, ING1",[29]; [32],0.5053
same,"Array Heatmap signal, AIRE (PP)",[30]; [32],0.4331
same,"Array Heatmap signal, KDM5B (1)",[31]; [32],0.6889
H3R2me2a + K4me3 + K9ac + S10p + K14ac + K18ac: H3 1-20,Array Heatmap signal (histone peptide microarray),[1]; [33],0.4604
same,Array Heatmap signal (histone peptide microarray),[2]; [33],0.4085
same,Array Heatmap signal (histone peptide microarray),[3]; [33],0.6564
same,Array Heatmap signal (histone peptide microarray),"[4]; GST-tagged CHD5 (PPCC = Dual PHD + Dual Chromodomain), sheet Array Heatmap, each array performed twice, total n = 4",0.548
same,Array Heatmap signal (histone peptide microarray),"[5]; GST-tagged TRIM66 (PB = PHD + Bromodomain), sheet Array Heatmap, each array performed twice, total n = 4",0.5406
same,Array Heatmap signal (histone peptide microarray),[6]; [33],0.3777
same,Array Heatmap signal (histone peptide microarray),[7]; [33],0.447
same,Array Heatmap signal (histone peptide microarray),[8]; [33],0.4975
same,Array Heatmap signal (histone peptide microarray),[9]; [33],0.3224
same,Array Heatmap signal (histone peptide microarray),"[10]; GST-tagged CHD5 (PCC = PHD + Dual Chromodomain), sheet Array Heatmap, each array performed twice, total n = 4",0.7925
same,Array Heatmap signal (histone peptide microarray),[11]; [33],0.3501
same,Array Heatmap signal (histone peptide microarray),"[12]; GST-tagged DPF2 (PPC2W2 = Dual PHD + C2W2-type Zn-finger), sheet Array Heatmap, each array performed twice, total n = 4",0.6777
same,Array Heatmap signal (histone peptide microarray),[13]; [33],0.3601
same,Array Heatmap signal (histone peptide microarray),[14]; [33],0.625
same,Array Heatmap signal (histone peptide microarray),[15]; [33],0.5457
same,Array Heatmap signal (histone peptide microarray),[16]; [33],0.601
same,Array Heatmap signal (histone peptide microarray),[17]; [33],0.6389
same,Array Heatmap signal (histone peptide microarray),"[18]; GST-tagged BPTF (PB = PHD + Bromodomain), sheet Array Heatmap, each array performed twice, total n = 4",0.3887
same,Array Heatmap signal (histone peptide microarray),[19]; [33],0.8949
same,Array Heatmap signal (histone peptide microarray),"[20]; GST-tagged KDM4C (TTP = Tandem Tudor domain + PHD), sheet Array Heatmap, each array performed twice, total n = 4",0.4723
same,Array Heatmap signal (histone peptide microarray),[21]; [33],0.4937
same,Array Heatmap signal (histone peptide microarray),[22]; [33],0.4602
same,Array Heatmap signal (histone peptide microarray),[23]; [33],0.7095
same,Array Heatmap signal (histone peptide microarray),[24]; [33],0.4836
same,Array Heatmap signal (histone peptide microarray),"[25]; GST-tagged CHD4 (PPCC = Dual PHD + Dual Chromodomain), sheet Array Heatmap, each array performed twice, total n = 4",0.6237
same,Array Heatmap signal (histone peptide microarray),[26]; [33],0.4417
same,Array Heatmap signal (histone peptide microarray),"[27]; GST-tagged MORC3 (CW = CW-type Zn-finger), sheet Array Heatmap, each array performed twice, total n = 4",0.5411
same,Array Heatmap signal (histone peptide microarray),[28]; [33],0.4526
same,Array Heatmap signal (histone peptide microarray),[29]; [33],0.5459
same,Array Heatmap signal (histone peptide microarray),[30]; [33],0.4047
same,Array Heatmap signal (histone peptide microarray),[31]; [33],0.6513

# — PMC6979384, “Characterization of the plant homeodomain (PHD) reader family for their histone tail interactions” (Epigenetics & Chromatin, 2020)
